Measured values published in publication PMC8262977, “A Dual-Specificity Inhibitor Targets Polyphosphate Kinase 1 and 2 Enzymes To Attenuate Virulence of Pseudomonas aeruginosa” (mBio, 2021).
In brackets after ≈: the same amount, converted by molar mass. Read-outs that look alike come from different tables or passages of the source.

Legend:
[1] = test system: E. coli PPK1; design: method as in earlier work; settings: ref 1 (supplement: Ahn K, Kornberg A. 1990); cited from earlier work
[2] = test system: P. aeruginosa; experiment: Antibiotic synergy in the C. elegans LK model; format: in vivo, Caenorhabditis elegans; design: C. elegans antibiotic synergy, Mean Diff.: unit not given here
Procedure: Assessment of antibiotic synergy in the C. elegans model was adapted from previously described protocols ([25]). Briefly, glp-4 C. elegans worms were incubated at 25°C with P. aeruginosa and the indicated amount of gallein or DMSO in LK medium as described above. After 24 h, antibiotics were added. After another 24 h, C. elegans survival was scored as described above.

[3] = test system: P. aeruginosa; experiment: microbe, parasite or virus in culture; format: cell-based, Pseudomonas aeruginosa; settings: Pseudomonas aeruginosa
[4] = molecular target: T1, P. aeruginosa PPK2A (Pseudomonas aeruginosa, UniProt Q9I6Z1); experiment: PPK2A ADP phosphorylation by polyP (ATP synthesis), toluidine blue detection; format: biochemical
T1 construct: residues P9 to P289; MBP (N, cleaved yes); His tag (N, cleaved yes); made in house; host or cells: E. coli BL21(DE3)
Procedure: (§1) All IC50 and kinetic assay mixtures contained equimolar amounts (275 nM) of PPK to ensure valid comparison between different enzymes. PolyP synthesis activity (for PPK1 and PPK2B) was assayed using the reaction buffer and conditions described above. ATP concentration was varied as indicated for kinetic experiments. Curves were fit using GraphPad Prism V9.
(§2) Nucleotide phosphorylation activity of PPK2 enzymes was assayed in buffer containing 50 mM Tris-HCl, pH 7.5, 10 mM (NH4)2SO4, 10 mM MgCl2, 5 mM polyP45 (Sigma; in terms of individual Pi monomers), and nucleotide (ADP or AMP) at 5 mM for IC50 reactions or as indicated for kinetic experiments. Enzyme was added to a final concentration of 275 nM in 100-μl reaction volumes. One-hundred-microliter reaction mixtures were incubated at 37°C for 30 min, and then 5-μl aliquots were withdrawn and added to 1,000 μl of 6-mg/liter toluidine blue dissolved in 40 mM acetic acid to quench the reaction and quantify the polyP that remained. The A630/530 nm ratio was then recorded, and the values obtained were corrected by subtracting the corresponding blanks (all ingredients except enzyme). The amount of polyP consumed was calculated by subtracting the amount present after reaction from that present in the initial reaction mix, as calculated via a standard curve. Each monomer of Pi consumed from polyP equates to one nucleoside phosphorylated. Curves were fit using GraphPad Prism V9.

[5] = molecular target: T2, P. aeruginosa PPK1 (Pseudomonas aeruginosa, UniProt P0DP44); experiment: PPK1 polyP synthesis from ATP, toluidine blue detection; format: biochemical; settings: polyP synthesis from ATP; 275 nM enzyme
T2 construct: His tag (cleaved yes); made in house
Procedure: Compounds were synthesized as outlined in Text S1. Compounds were dissolved in DMSO to make 10 mM stocks and added to a 200 μM final concentration for initial screening. The screen for PPK1 inhibitors was conducted by measuring polyP synthesis activity as described previously ([12]), with the exception of the polyP detection method (see Text S1). […] One-hundred-microliter reaction mixtures were incubated at 37°C for 30 min, after which time 50-μl aliquots were withdrawn and added to 1,000 μl of 6-mg/liter toluidine blue dissolved in 40 mM acetic acid to quench the reaction and quantify polyP ([27]). The A630/530 nm ratio was then recorded, and the values obtained were corrected by subtracting the corresponding blanks (all ingredients except enzyme). The amount of polyP synthesized was calculated using a standard curve (Fig. S1A). Any compounds showing 50% or greater reduction in activity relative to the DMSO control were subjected to further IC50 analysis.
as §1

[6] = molecular target: T3, P. aeruginosa PPK2C (Pseudomonas aeruginosa, UniProt Q9HYF1); experiment: PPK2C AMP phosphorylation by polyP (ADP synthesis), toluidine blue detection; format: biochemical
T3 construct: MBP (N, cleaved yes); His tag (N, cleaved yes); made in house; host or cells: E. coli BL21(DE3)
Procedure: as §1, §2

[7] = molecular target: T4, P. aeruginosa PPK2B (Pseudomonas aeruginosa, UniProt Q9I154); experiment: PPK2B polyP synthesis from ATP, toluidine blue detection; format: biochemical
T4 construct: MBP (N, cleaved yes); His tag (N, cleaved yes); made in house; host or cells: E. coli BL21(DE3)
Procedure: Compounds were synthesized as outlined in Text S1. Compounds were dissolved in DMSO to make 10 mM stocks and added to a 200 μM final concentration for initial screening. The screen for PPK1 inhibitors was conducted by measuring polyP synthesis activity as described previously ([12]), with the exception of the polyP detection method (see Text S1). The reaction mix contained 50 mM HEPES-KOH, pH 7.5, 40 mM (NH4)2SO4, 4 mM MgSO4, 60 mM creatine phosphate, 0.0625 mg/ml creatine kinase (Sigma; from rabbit muscle), 5 mM ATP, and 275 nM PPK1 (added last). One-hundred-microliter reaction mixtures were incubated at 37°C for 30 min, after which time 50-μl aliquots were withdrawn and added to 1,000 μl of 6-mg/liter toluidine blue dissolved in 40 mM acetic acid to quench the reaction and quantify polyP ([27]). The A630/530 nm ratio was then recorded, and the values obtained were corrected by subtracting the corresponding blanks (all ingredients except enzyme). The amount of polyP synthesized was calculated using a standard curve (Fig. S1A). Any compounds showing 50% or greater reduction in activity relative to the DMSO control were subjected to further IC50 analysis.
as §1

[8] = test system: HEK293T cells; experiment: HEK293T cytotoxicity assay, trypan blue; format: cell-based, human; settings: 48 h incubation
Procedure: HEK293 cells were grown in Dulbecco’s modified Eagle’s medium supplemented with 10% fetal bovine serum at 5% CO2 and 37°C. Cells were grown until a confluent monolayer was formed in 12-well culture plates, at which point inhibitors or DMSO was added. After 48-h incubation, cells were detached with trypsin and percent viability was scored via a hemocytometer and trypan blue staining.

[9] = ATP synthesis from ADP and polyP, 275 nM enzyme, read-out: IC50 PPK2A
[10] = Data Set S1, sheet Risen compounds, read-out: PA PPK2A IC50
[11] = ADP synthesis from AMP and polyP, 275 nM enzyme, read-out: IC50 PPK2C
[12] = Data Set S1, sheet Risen compounds, read-out: PA PPK2C IC50
[13] = polyP synthesis from ATP, 275 nM enzyme, read-out: IC50 PPK2B

T2 sequence (P0DP44 whole entry): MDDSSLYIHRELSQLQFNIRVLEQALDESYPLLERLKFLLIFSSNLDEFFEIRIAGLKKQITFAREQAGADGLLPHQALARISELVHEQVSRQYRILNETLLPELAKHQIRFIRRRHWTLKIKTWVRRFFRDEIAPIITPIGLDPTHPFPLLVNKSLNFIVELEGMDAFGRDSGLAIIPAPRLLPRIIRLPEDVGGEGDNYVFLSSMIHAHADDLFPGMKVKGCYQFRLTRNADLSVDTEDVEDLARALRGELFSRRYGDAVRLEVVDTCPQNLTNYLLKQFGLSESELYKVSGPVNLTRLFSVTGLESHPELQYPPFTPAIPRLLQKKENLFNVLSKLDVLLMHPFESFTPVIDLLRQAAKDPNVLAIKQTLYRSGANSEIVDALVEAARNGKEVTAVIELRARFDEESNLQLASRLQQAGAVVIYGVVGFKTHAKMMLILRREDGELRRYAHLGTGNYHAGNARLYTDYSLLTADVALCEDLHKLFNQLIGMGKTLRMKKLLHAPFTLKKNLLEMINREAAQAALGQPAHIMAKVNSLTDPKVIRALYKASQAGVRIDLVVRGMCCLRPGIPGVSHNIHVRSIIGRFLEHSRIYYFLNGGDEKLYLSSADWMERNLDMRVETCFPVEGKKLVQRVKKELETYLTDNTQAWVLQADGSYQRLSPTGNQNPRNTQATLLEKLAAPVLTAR
T3 sequence (Q9HYF1 whole entry): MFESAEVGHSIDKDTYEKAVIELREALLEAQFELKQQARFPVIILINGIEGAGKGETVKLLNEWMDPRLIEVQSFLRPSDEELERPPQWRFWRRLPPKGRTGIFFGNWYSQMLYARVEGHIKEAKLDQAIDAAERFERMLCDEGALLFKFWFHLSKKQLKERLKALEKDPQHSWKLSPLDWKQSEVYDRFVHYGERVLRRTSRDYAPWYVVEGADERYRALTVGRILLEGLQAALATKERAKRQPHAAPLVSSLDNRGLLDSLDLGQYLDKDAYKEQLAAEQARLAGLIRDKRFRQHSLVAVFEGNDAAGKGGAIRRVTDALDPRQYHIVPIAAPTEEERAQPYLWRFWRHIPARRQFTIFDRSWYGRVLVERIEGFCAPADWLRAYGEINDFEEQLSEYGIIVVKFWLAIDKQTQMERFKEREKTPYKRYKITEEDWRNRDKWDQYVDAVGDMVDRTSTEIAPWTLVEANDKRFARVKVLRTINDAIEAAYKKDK
T1 sequence (Q9I6Z1 68-348): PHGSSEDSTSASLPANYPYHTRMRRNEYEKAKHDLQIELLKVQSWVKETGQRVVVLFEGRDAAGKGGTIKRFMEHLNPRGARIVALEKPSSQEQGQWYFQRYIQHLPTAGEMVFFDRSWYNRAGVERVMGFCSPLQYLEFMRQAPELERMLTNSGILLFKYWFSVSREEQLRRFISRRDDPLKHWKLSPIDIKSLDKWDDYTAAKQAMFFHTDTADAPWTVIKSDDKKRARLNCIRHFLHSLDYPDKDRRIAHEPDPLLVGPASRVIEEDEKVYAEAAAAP
T4 sequence (Q9I154 whole entry): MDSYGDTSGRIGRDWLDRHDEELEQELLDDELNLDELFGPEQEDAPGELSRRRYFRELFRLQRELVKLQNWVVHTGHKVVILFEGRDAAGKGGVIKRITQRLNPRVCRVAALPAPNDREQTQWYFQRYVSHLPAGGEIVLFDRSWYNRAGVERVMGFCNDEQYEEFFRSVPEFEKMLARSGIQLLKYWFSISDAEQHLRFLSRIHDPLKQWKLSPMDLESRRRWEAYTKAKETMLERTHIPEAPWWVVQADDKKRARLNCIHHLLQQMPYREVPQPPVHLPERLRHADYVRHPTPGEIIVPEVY

Row | Compound | IC50 [4, 9] | IC50 [4, 10] | IC50 [5] | IC50 [6, 11] | IC50 [6, 12] | IC50 [7, 13] | other results
1 | Nc1ncnc2c1ncn2[C@@H]1O[C@H](COP(=O)(O)OP(=O)(O)O)[C@@H](O)[C@H]1O [ADP] | – | – | – | – | – | – | Ki [1]: 90 µM
2 | CN(C)[C@@H]1C(O)=C(C(N)=O)C(=O)[C@@]2(O)C(O)=C3C(=O)c4c(O)cccc4[C@@](C)(O)[C@H]3C[C@@H]12 [tetracycline, reference compound] | – | – | – | – | – | – | C. elegans antibiotic synergy, Mean Diff. ([2]; No antibiotic + 100 µM gallein vs Tet (10 µg/mL) + 100 µM gallein): -22.79; C. elegans antibiotic synergy, Mean Diff. ([2]; No antibiotic DMSO vs Tet (10 µg/mL) DMSO): 10.54; MIC [3]: 16 µg/mL (≈ 36 µM)
3 | O=c1oc2c(O)c(O)c(O)c3c(=O)oc4c(O)c(O)cc1c4c23 [RT2, 1,2,3,7,8-pentahydroxychromeno[5,4,3-cde]chromene-5,10-dione] | > 500 µM | > 500 µM | 20 ± 4 µM | > 500 µM | > 500 µM | 59 ± 5 µM | –
4 | O=C(O)c1cn(C2CC2)c2cc(N3CCNCC3)c(F)cc2c1=O [ciprofloxacin, reference compound] | – | – | – | – | – | – | C. elegans antibiotic synergy, Mean Diff. ([2]; No antibiotic + 100 µM gallein vs Cipro (0.75 µg/mL) + 100 µM gallein): -18.9; C. elegans antibiotic synergy, Mean Diff. ([2]; No antibiotic DMSO vs Cipro (0.75 µg/mL) DMSO): 12.02
5 | COc1ccc2c(c1OC)c(=O)oc1c(OC)c(O)ccc12 [RT1, 3-hydroxy-4,7,8-trimethoxy-6H-benzo[c]chromen-6-one] | > 500 µM | > 500 µM | 120 ± 10 µM | > 500 µM | > 500 µM | > 500 µM | IC50 ([7]; Data Set S1, sheet Risen compounds, read-out: PA PPK2B IC50): > 500 µM; reduction of cell viability [8]: ~60%
6 | O=c1oc2c(O)c(O)cc3c(=O)oc4c(O)c(O)cc1c4c23 [RT3 (ellagic acid), 2,3,7,8-tetrahydroxychromeno[5,4,3-cde]chromene-5,10-dione] | 50 ± 6 µM | – | 20 ± 2 µM | > 500 µM | > 500 µM | 48 ± 2 µM | –
